In patent publication US10722520B2, “Heterocyclic compounds and their use in preventing or treating bacterial infections” (MUTABILIS, priority 2016, dated 2020):
Where two headings read alike, the source gives them in different places.

Key:
[1] = molecular target: AmpC (P99) (Enterobacter cloacae, UniProt P05364); details: read-out: IC50 β-lactamase AmpC (P99); class (C); nitrocefin 200 μM, 30-min pre-incubation, enzyme 0.2 nM
[2] = molecular target: T1, AmpC (PAE) (Pseudomonas aeruginosa, UniProt P24735); details: read-out: IC50 β-lactamase AmpC (PAE); class (C); nitrocefin 200 μM, 30-min pre-incubation, enzyme 0.4 nM
T1 sequence (P24735 27-397): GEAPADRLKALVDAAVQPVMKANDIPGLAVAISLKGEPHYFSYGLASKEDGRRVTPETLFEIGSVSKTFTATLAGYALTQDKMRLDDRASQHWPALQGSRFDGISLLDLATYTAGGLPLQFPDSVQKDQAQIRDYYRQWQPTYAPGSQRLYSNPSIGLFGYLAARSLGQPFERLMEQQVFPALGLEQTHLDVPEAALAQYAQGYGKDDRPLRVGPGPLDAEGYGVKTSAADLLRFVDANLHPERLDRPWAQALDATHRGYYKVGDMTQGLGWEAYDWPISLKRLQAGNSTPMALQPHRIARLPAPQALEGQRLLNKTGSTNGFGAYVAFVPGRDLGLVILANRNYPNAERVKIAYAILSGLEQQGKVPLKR

[3] = molecular target: OXA-15 (Pseudomonas aeruginosa, UniProt Q51574); details: read-out: IC50 β-lactamase OXA-15; class (D); nitrocefin 200 μM, 30-min pre-incubation, enzyme 0.4 nM
Sequence of OXA-15 (Q51574 22-275): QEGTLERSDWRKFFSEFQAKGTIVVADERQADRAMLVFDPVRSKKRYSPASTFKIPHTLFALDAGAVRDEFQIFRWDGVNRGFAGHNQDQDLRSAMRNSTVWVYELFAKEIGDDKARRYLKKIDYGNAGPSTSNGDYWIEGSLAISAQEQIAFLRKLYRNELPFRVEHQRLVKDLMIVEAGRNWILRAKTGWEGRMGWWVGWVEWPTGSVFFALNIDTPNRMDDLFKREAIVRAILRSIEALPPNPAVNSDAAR

[4] = molecular target: T1, AmpC (PAE); experiment: biochemical

Sequence of AmpC (P99) (P05364 21-381): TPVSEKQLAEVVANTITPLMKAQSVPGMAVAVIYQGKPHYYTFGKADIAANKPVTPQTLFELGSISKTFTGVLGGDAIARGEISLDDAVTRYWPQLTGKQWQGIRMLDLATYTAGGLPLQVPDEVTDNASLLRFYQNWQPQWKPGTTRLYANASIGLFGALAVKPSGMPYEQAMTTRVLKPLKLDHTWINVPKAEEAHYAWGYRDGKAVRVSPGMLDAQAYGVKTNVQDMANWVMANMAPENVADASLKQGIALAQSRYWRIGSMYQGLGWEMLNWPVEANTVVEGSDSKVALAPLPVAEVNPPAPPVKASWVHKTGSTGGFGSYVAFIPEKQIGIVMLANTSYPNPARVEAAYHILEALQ

Row | SMILES | IC50 [1] [nM] | IC50 [2] [nM] | IC50 [3] [nM] | IC50 [4] [nM]
1 | O=C1N2CC(n3ccnn3)=CC(C2)N1OS(=O)(=O)[O-].[Na+] (centres unmarked) [Example 2, sodium [7-oxo-3-(triazol-1-yl)-1,6-diazabicyclo[3.2.1]oct-3-en-6-yl]sulfate] | 10 | 150 | 40 | –
2 | O=C1N2CC(n3cncn3)=CC(C2)N1OS(=O)(=O)[O-].[Na+] (centres unmarked) [Example 5, sodium [7-oxo-3-(1,2,4-triazol-1-yl)-1,6-diazabicyclo[3.2.1]oct-3-en-6-yl]sulfate] | – | – | – | 140
3 | O=C1N2CC(n3ccsc3=O)=CC(C2)N1OS(=O)(=O)[O-].[Na+] (centres unmarked) [Example 1, Sodium [7-oxo-3-(2-oxo-thiazol-3-yl)-1,6-diaza-bicyclo[3.2.1]oct-3-en-6-yl]sulfate] | – | – | – | 120
